Reference: patent US20160122320A1, “USEFUL COMBINATIONS OF MONOBACTAM ANTIBIOTICS WITH BETA-LACTAMASE INHIBITORS” (Basilea Pharmaceutica AG, priority 2005, published 2016)

Legend:
Assay in all cases: MIC, NCCLS broth microdilution
Assay type in all cases: cell-based
[1] = system: Acinetobacter sp. J2; settings: Acinetobacter sp. J2; MIC of antibiotic compound 1 with the labelled bridged monobactam of formula II and clavulanate, 4 mg/L each
Experimental: (§1) Antimicrobial activity of the compounds and of their combinations was determined against a selection of organisms according to the standard procedures described by the National Committee for Clinical Laboratory Standards (National Committee for Clinical Laboratory. Standards (2000). Methods for Dilution Antimicrobial Susceptibility Tests for Bacteria That Grow Aerobically-Fifth Edition: Approved Standard M7-A5. NCCLS, Wayne, Pa., USA).
(§2) In all cases the final concentration of DMSO incubated with the bacteria is less than or equal to 1%. […] Plates were incubated overnight at an appropriate temperature (30° C. or 37° C.) and optical densities assessed by eye. The MIC value is defined as the lowest compound concentration completely inhibiting visible growth of the test organism. When combinations between compounds of formula I with compounds of formula II and are evaluated the compounds of formula I are tested in dilution series as described above while the compounds of formula II and III-XIII were present in all wells at a constant concentration of 4 μg/mL each.

[2] = system: Pseudomonas aeruginosa MK1184; settings: MIC of antibiotic compound 1 with the labelled bridged monobactam of formula II and clavulanate, 4 mg/L each
Experimental: as §1, §2

[3] = system: Pseudomonas aeruginosa 1973E; settings: MIC of antibiotic compound 1 with the labelled bridged monobactam of formula II and clavulanate, 4 mg/L each
How it was run: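 MIC read by eye as the lowest concentration giving no visible growth after overnight incubation (30° C. or 37° C.), following NCCLS M7-A5 microdilution with ≤1% final DMSO. For combinations, partner compounds (formula II, III-XIII) were fixed at 4 μg/mL each while formula I compounds were titrated.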

[4] = system: Enterobacter cloacae P99; settings: MIC of antibiotic compound 1 with the labelled bridged monobactam of formula II and clavulanate, 4 mg/L each
[5] = system: Klebsiella pneumoniae CF104; settings: MIC of antibiotic compound 1 with the labelled bridged monobactam of formula II and clavulanate, 4 mg/L each
[6] = system: Serratia marcescens S6; settings: MIC of antibiotic compound 1 with the labelled bridged monobactam of formula II and clavulanate, 4 mg/L each
Experimental: as §1, §2

[7] = system: Stenotrophomonas malthophilia 1AC736; settings: Stenotrophomonas malthophilia 1AC736; MIC of antibiotic compound 1 with the labelled bridged monobactam of formula II and clavulanate, 4 mg/L each

| SMILES | MIC of antibiotic at fixed inhibitor concentration (4 mg/L) [1] [mg/L] | MIC of antibiotic at fixed inhibitor concentration (4 mg/L) [2] [mg/L] | MIC of antibiotic at fixed inhibitor concentration (4 mg/L) [3] [mg/L] | MIC of antibiotic at fixed inhibitor concentration (4 mg/L) [4] [mg/L] | MIC of antibiotic at fixed inhibitor concentration (4 mg/L) [5] [mg/L] | MIC of antibiotic at fixed inhibitor concentration (4 mg/L) [6] [mg/L] | MIC of antibiotic at fixed inhibitor concentration (4 mg/L) [7] [mg/L] |
| --- | --- | --- | --- | --- | --- | --- | --- |
| O=C(Nc1ccccc1)N1CC[C@@H]2[C@H]1C(=O)N2S(=O)(=O)[O-].[Na+] [Compound 301] | 8 | >32 | 4 | 16 | 1 | 0.25 | 0.125 |
| O=C(NCc1ccccc1)N1CC[C@@H]2[C@H]1C(=O)N2S(=O)(=O)[O-].[Na+] [Compound 302] | >32 | >32 | 4 | 32 | 2 | 0.25 | 0.125 |
| O=C(NCc1ccc(O)c(O)c1)N1CC[C@@H]2[C@H]1C(=O)N2S(=O)(=O)[O-].[Na+] [Compound 303, Sodium(1S,5R)-2-{N-[(3,4-dihydroxyphenyl)methyl]carbamoyl}-7-oxo-2,6-diazabicyclo[3.2.0]heptane-6-sulfonate] | >32 | >32 | 4 | 32 | 2 | 0.5 | 0.125 |
| COc1ccc(NC(=O)N2CC[C@@H]3[C@H]2C(=O)N3S(=O)(=O)[O-])cc1.[Na+] [Compound 304] | >32 | >32 | 4 | 32 | 1 | 0.25 | 0.125 |
| NC(=O)c1cccc(NC(=O)N2CC[C@@H]3[C@H]2C(=O)N3S(=O)(=O)[O-])c1.[Na+] [Compound 305] | >32 | >32 | 4 | 4 | 4 | 0.25 | 0.25 |
| O=C(Nc1ccc(O)c(O)c1)N1CC[C@@H]2[C@H]1C(=O)N2S(=O)(=O)[O-].[Na+] [Compound 306, Sodium(1S,5R)-2-[N-(3,4-dihydroxyphenyl)carbamoyl]-7-oxo-2,6-diazabicyclo[3.2.0]heptane-6-sulfonate] | >32 | >32 | 4 | 32 | 2 | 0.5 | 0.25 |
| CC(=O)Nc1cccc(NC(=O)N2CC[C@@H]3[C@H]2C(=O)N3S(=O)(=O)[O-])c1.[Na+] [Compound 307, Sodium(1S,5R)-2-{N-[3-(acetylamino)phenyl]carbamoyl}-7-oxo-2,6-diazabicyclo[3.2.0]heptane-6-sulfonate] | >32 | >32 | 8 | 32 | 2 | 0.25 | 0.125 |
| NS(=O)(=O)c1cccc(NC(=O)N2CC[C@@H]3[C@H]2C(=O)N3S(=O)(=O)[O-])c1.[Na+] [Compound 308] | >32 | >32 | 4 | 16 | 0.5 | 0.5 | 0.125 |
